This is an account of results in ChEMBL document CHEMBL4145597, “BMS-986163, a Negative Allosteric Modulator of GluN2B with Potential Utility in Major Depressive Disorder” (ACS Med Chem Lett, 2018).

Values after ≈ are worked out from the molar mass of the structure shown. Active and inactive are the calls of the source. No cut-off for these calls is given here.

Data set [1] is described as follows: Plasma concentration in CD-1 mouse at 0.1 to 1 mg/kg, iv. The class given is ADME, organism-based. To be noted: in vivo.
Data set [2] addresses Voltage-gated inwardly rectifying potassium channel KCNH2 (Homo sapiens, UniProt Q12809). Put plainly: Inhibition of human ERG expressed in HEK293 cells assessed as reduction in peak tail current after 2 to 5 mins by patch clamp based electrophysiology assay. It counts as cell-based.
Data set [3] has as its system Mus musculus. The data set can be described thus: Ex vivo receptor occupancy at GluN2B receptor in CD-1 mouse forebrain membranes assessed as reduction in [3H]Ro 25-6981 receptor labeling at 3 mg/kg, iv incubated for 5 mins by topcount micro scintillation counting method. The class given is functional.
The test system of data set [4] is Mus musculus. Put plainly: Ex vivo receptor occupancy at GluN2B receptor in CD-1 mouse forebrain membranes assessed as reduction in [3H]Ro 25-6981 receptor labeling administered iv incubated for 5 mins by topcount micro scintillation counting method. It counts as functional, organism-based. The following applies: Membrane.
In data set [5] the test system is Mus musculus. Put plainly: Antidepressant activity in CD-1 mouse assessed as decrease in immobility time administered iv 15 mins prior to test measured for 6 mins observation by forced swim test. It counts as functional.
The nature of data set [6]: Plasma concentration in CD-1 mouse at 0.3 mg/kg, iv. It counts as ADME, organism-based. The following applies: in vivo.
Data set [7] relates to Mus musculus. Put plainly: Ex vivo receptor occupancy at GluN2B receptor in CD-1 mouse forebrain membranes assessed as reduction in [3H]Ro 25-6981 receptor labeling at 0.3 mg/kg, iv incubated for 5 mins by topcount micro scintillation counting method. The class given is functional.
Data set [8] deals with Mus musculus. The data set can be described thus: Ex vivo receptor occupancy at GluN2B receptor in CD-1 mouse forebrain membranes assessed as reduction in [3H]Ro 25-6981 receptor labeling at 1 mg/kg, iv incubated for 5 mins by topcount micro scintillation counting method. It counts as functional.
Data set [9] concerns Mus musculus. The data set can be described thus: Ex vivo receptor occupancy at GluN2B receptor in CD-1 mouse forebrain membranes assessed as reduction in [3H]Ro 25-6981 receptor labeling at 0.1 to 1 mg/kg, iv incubated for 5 mins by topcount micro scintillation counting method. The class given is functional.
Data set [10] can be described thus: Plasma concentration in CD-1 mouse at 1 mg/kg, iv. It counts as ADME, organism-based. To be noted: in vivo.
Data set [11] in a line: Fraction unbound in mouse plasma. It counts as ADME, cell-free.
Data set [12] is described as follows: Dissociation constant, pKa of the compound by spectrophotometric method. It counts as physicochemical.
Data set [13] can be described thus: Fraction unbound in rat plasma. It counts as ADME, cell-free.
Data set [14] has as its target Glutamate receptor ionotropic, NMDA 2B (Homo sapiens, UniProt Q05586+Q13224). Put plainly: (§1) Negative allosteric modulation of human GluN2B receptor expressed in Xenopus laevis oocytes assessed as inhibition of glutamate/glycine-induced channel current after 15 to 20 mins by two electrode voltage clamp based electrophysiology assay. The class given is cell-based.
Data set [15] deals with Glutamate receptor ionotropic, NMDA 2B (Rattus norvegicus, UniProt Q00960). The data set can be described thus: Displacement of [3H]Ro 25-6981 from GluN2B receptor in Sprague-Dawley rat forebrain membranes incubated for 1 hr by topcount micro scintillation counting method. Also on record: species or system Membrane.
A short description of data set [16]: Fraction unbound in human plasma. It counts as ADME, cell-free.
For data set [17], the target named is Glutamate receptor ionotropic, NMDA 2D (Homo sapiens) (UniProt O15399). The data set can be described thus: Negative allosteric modulation of human GluN2D receptor expressed in Xenopus laevis oocytes assessed as inhibition of glutamate/glycine-induced channel current at 3 uM after 10 to 15 mins by two electrode voltage clamp based electrophysiology assay. It counts as cell-based.

The target of data set [18] is Glutamate receptor ionotropic, NMDA 2A (Homo sapiens) (UniProt Q12879). Put plainly: Negative allosteric modulation of human GluN2A receptor expressed in Xenopus laevis oocytes assessed as inhibition of glutamate/glycine-induced channel current at 3 uM after 10 to 15 mins by two electrode voltage clamp based electrophysiology assay. The class given is cell-based.
Data set [19] deals with Glutamate receptor ionotropic, NMDA 2B (Homo sapiens, UniProt Q13224). Described as §1. It counts as cell-based.
Sequence of Glutamate receptor ionotropic, NMDA 2B (Homo sapiens, UniProt Q13224) (Q13224 27-1484 limits assumed): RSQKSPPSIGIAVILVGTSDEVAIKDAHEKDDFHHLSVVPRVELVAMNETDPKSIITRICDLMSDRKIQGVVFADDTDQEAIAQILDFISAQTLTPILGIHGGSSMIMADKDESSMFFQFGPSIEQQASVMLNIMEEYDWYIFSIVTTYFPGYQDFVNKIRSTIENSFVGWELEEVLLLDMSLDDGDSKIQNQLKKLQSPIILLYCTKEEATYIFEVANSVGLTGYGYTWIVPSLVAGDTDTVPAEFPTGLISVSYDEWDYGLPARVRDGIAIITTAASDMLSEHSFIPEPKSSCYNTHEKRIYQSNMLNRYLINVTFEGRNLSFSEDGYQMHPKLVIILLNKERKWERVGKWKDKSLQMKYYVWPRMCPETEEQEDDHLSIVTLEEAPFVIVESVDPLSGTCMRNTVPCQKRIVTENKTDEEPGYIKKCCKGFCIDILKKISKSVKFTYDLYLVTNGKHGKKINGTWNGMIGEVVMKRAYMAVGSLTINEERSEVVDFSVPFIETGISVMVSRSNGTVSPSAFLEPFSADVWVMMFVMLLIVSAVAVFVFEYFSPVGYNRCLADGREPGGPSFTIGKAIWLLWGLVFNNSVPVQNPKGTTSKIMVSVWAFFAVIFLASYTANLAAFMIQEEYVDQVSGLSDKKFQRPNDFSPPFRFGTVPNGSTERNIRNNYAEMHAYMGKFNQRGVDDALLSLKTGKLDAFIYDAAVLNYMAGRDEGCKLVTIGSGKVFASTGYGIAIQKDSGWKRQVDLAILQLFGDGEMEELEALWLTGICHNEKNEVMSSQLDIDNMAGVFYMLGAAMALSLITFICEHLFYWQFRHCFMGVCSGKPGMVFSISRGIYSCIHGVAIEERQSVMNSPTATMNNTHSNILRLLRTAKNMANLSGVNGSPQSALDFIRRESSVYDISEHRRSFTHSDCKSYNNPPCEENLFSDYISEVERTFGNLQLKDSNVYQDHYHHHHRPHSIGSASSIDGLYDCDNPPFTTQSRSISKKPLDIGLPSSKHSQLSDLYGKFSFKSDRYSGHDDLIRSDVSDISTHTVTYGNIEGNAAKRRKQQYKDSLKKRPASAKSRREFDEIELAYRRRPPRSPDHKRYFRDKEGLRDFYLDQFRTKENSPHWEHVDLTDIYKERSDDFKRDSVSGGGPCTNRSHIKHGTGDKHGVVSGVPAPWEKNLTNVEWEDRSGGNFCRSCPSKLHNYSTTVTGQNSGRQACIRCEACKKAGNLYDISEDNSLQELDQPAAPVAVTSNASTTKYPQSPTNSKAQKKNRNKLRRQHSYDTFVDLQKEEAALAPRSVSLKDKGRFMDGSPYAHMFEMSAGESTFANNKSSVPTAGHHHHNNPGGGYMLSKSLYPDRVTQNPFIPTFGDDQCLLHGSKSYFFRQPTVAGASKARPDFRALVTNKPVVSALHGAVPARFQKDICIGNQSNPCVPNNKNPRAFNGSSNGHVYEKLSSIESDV
For data set [20], the target named is Glutamate receptor ionotropic, NMDA 2C (Homo sapiens) (UniProt Q14957). Put plainly: Negative allosteric modulation of human GluN2C receptor expressed in Xenopus laevis oocytes assessed as inhibition of glutamate/glycine-induced channel current at 3 uM after 10 to 15 mins by two electrode voltage clamp based electrophysiology assay. The class given is cell-based.
Sequence of Glutamate receptor ionotropic, NMDA 2C (Homo sapiens) (Q14957 whole entry): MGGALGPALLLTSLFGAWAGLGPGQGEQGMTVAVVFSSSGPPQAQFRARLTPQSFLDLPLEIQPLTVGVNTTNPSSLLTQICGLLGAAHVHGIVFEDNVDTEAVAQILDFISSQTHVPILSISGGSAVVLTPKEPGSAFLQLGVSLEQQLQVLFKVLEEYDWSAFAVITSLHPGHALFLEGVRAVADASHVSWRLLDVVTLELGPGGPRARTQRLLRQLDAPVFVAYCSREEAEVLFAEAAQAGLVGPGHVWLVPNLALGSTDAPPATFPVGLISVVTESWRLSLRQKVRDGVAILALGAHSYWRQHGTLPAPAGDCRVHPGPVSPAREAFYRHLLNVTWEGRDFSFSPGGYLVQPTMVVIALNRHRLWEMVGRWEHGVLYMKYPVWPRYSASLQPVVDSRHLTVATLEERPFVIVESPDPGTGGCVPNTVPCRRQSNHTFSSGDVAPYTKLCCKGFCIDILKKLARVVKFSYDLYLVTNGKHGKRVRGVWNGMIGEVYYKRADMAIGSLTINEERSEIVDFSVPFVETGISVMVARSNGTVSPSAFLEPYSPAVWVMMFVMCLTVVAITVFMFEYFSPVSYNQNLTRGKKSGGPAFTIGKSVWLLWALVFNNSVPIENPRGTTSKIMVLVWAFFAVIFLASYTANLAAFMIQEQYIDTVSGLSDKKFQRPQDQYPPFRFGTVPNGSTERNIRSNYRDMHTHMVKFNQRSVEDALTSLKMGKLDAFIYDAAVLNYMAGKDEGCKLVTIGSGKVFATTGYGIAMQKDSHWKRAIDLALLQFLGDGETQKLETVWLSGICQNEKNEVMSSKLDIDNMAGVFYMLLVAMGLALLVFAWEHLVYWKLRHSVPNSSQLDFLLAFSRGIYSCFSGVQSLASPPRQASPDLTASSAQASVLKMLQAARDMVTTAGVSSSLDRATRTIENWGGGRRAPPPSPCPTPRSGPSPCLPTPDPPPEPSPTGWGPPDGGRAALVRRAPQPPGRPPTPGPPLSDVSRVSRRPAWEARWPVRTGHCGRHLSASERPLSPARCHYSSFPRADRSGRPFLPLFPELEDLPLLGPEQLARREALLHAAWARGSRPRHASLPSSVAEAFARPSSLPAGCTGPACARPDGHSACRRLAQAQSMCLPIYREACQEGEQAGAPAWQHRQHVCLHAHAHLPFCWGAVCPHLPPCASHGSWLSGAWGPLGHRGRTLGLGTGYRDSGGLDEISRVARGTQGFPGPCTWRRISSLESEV

Data set [21] in a line: Stability of the compound at 50 degC up to 4 weeks using solid state compound. The class given is physicochemical. To be noted: 672 h.
In data set [22] the test system is Rhesus monkey. The data set can be described thus: Cmax in monkey at 36 mg/kg, iv assessed as BMS-986169 level in plasma. It counts as ADME, organism-based, Macaca mulatta. Also on record: dose 36 mg/kg, route intravenous. To be noted: in vivo.
Data set [23] concerns Rattus norvegicus. The data set can be described thus: Toxicity in rat assessed as clinical pathological observations at 10 to 100 mg/kg/day administered iv. The class given is organism-based. The following applies: in vivo.
A short description of data set [24]: Aqueous solubility of the compound at pH 7.4. It counts as physicochemical. The following applies: aqueous medium.
Data set [25] relates to Rattus norvegicus. The data set can be described thus: Toxicity in rat assessed as histopathological observations at 10 to 100 mg/kg/day administered iv. It counts as organism-based. To be noted: in vivo.
In data set [26] the test system is Rhesus monkey. The data set can be described thus: Toxicity in monkey at 3.6 to 36 mg/kg, iv administered as single dose. It counts as organism-based, Macaca mulatta. The following applies: in vivo.
Data set [27] is described as follows: Stability of the compound in aqueous solution at 25 degC up to 90 days. It counts as physicochemical. To be noted: buffer, 2160 h.

Sequence of Voltage-gated inwardly rectifying potassium channel KCNH2 (Q12809 whole entry): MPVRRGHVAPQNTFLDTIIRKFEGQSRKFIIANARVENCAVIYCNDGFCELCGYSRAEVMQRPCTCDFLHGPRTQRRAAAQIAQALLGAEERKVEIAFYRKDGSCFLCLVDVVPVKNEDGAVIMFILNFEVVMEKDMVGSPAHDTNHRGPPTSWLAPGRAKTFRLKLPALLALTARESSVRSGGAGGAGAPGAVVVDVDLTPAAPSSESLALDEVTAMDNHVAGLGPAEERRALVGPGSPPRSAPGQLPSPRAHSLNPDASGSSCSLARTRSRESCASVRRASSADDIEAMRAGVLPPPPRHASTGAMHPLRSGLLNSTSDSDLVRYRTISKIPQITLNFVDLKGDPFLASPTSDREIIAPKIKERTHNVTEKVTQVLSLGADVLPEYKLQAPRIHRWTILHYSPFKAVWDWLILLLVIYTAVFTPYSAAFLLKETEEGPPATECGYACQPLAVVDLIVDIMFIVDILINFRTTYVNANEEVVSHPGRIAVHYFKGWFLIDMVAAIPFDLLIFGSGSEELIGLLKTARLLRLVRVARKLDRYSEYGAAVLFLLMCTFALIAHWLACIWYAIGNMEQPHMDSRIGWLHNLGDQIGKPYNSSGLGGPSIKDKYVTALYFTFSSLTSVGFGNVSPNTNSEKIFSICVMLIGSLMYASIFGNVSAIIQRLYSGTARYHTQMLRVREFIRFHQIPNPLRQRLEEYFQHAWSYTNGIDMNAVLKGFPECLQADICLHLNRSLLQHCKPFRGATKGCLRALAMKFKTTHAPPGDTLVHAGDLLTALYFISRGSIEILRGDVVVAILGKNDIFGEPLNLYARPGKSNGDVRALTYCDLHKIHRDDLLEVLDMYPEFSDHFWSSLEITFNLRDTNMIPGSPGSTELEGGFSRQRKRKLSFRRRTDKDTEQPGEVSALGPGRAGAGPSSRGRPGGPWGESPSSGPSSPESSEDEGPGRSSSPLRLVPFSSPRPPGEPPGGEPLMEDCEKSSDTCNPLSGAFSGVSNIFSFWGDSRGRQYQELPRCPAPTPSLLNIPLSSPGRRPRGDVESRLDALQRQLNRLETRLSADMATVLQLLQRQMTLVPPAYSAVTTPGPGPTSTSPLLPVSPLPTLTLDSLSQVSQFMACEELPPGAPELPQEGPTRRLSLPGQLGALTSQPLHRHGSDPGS

Take `Cc1ccc(CN2CC[C@@H](N3CC[C@H](c4ccc(O)cc4)[C@H](F)C3)C2=O)cc1`: the concentration in data set [1] turned out to be 590 nM. Also, the IC50 in [2] worked out at 7800 nM. Besides, the Occ with Mus musculus [3] is reported as 95%.
Turning to `O=C1[C@H](N2CCC(c3ccc(O)cc3)CC2)CCN1Cc1ccc(F)cc1`, the Activity entry with Mus musculus [4] and in the data set with Mus musculus [5] was “Dose-dependent effect” each time. The minimal effective dose in the data set on Mus musculus [5] (CD-1, iv, read-out: MED) came out at 0.56 mg/kg. In addition, the figures for the concentration in data set [1], in [6] and in data set [10] were 150 nM, 70 nM and 340 nM, respectively. Further, the Occ stood at 60% in the data set on Mus musculus [7], 95% in the data set with Mus musculus [8] and 75% in the data set with Mus musculus [9]. The IC50 in [2] came to 620 nM; in [14], 4.2 nM. Also, the fraction unbound was 0.12 in [11], 0.11 in [13] and 0.1 in data set [16]. In [12], the pKa came to 6.8. This molecule also returned a Ki in data set [15] of 1.4 nM.
As for `Cc1ccc(CN2CC[C@@H](N3CCC(c4ccc(O)cc4)C(F)(F)C3)C2=O)cc1` (some centres not stated), in [1], the concentration turned out to be 2500 nM. In addition, in data set [2], the IC50 is more than 30000 nM. Further, the Occ in the data set with Mus musculus [3] was 93%.
With `O=C1NCC[C@H]1N1CC[C@@H](c2ccc(O)cc2)[C@H](F)C1`, the inhibition result in data set [17], in data set [18], in [19] and in data set [20] was “inactive” each time.
With `O=C(O)c1ccc(CN2CC[C@@H](N3CC[C@@H](c4ccc(O)cc4)[C@H](F)C3)C2=O)cc1`, the inhibition entry in [17], in [18], in data set [19] and in [20] was “inactive” throughout.
For `Cc1ccc(CN2CC[C@@H](N3CC[C@@H](c4ccc(OP(=O)(O)O)cc4)[C@H](F)C3)C2=O)cc1`, the Stability result in data set [21] and in [27] was “Stable” each time. The Cmax with Rhesus monkey [22] is 19000 nM. Moreover, the Activity entry with Rattus norvegicus [23], with Rattus norvegicus [25] and in the data set with Rhesus monkey [26] was “Non-Toxic” each time. This molecule displayed a solubility in data set [24] of 19.9 mg/mL (≈ 43 mM).
As for `Cc1ccc(CN2CC[C@@H](N3CC[C@H](c4ccc(O)cc4)[C@@H](F)C3)C2=O)cc1`, in data set [1], the concentration worked out at 710 nM. Besides, the IC50 in data set [2] was more than 30000 nM. In addition, the Occ in the data set on Mus musculus [3] was found to be 87%.
In [1], `O=C1[C@H](N2CC[C@@H](c3ccc(O)cc3)[C@H](F)C2)CCN1Cc1ccc(F)cc1` had a concentration of 1200 nM. The IC50 in data set [2] was more than 5000 nM. This molecule gave a Ki in [15] of 11 nM. In addition, in the data set on Mus musculus [3], the Occ turned out to be 81%.
Turning to `Cc1ccc(CN2CC[C@@H](N3CCC(c4ccc(O)cc4)CC3)C2=O)cc1`, the concentration in [1] came out at 220 nM. The Occ with Mus musculus [8] is reported as 92%. For the same molecule, the IC50 in data set [2] was 400 nM.
